{"source": "patent US6844182B2", "about": "“Mutants which produce a potentiator of bacillus pesticidal activity” (priority 1992, dated 2005)", "key": {"[1]": {"experiment": "Stability of Ia (retention of activity)", "type": "physicochemical", "procedure": "Further, it is stable when subjected to direct sunlight for at least 10 hours. Ia is stable at a pH 2 for 3 days, but unstable at pH 12."}, "[2]": {"experiment": "Solubility of Ia", "type": "physicochemical", "description": "The active compound is found to be water soluble but is not soluble in organic solvents. […] A DEPT experiment determined that there are three quaternary carbons (C), seven methines (CH), three methylenes (CH2) and no methyl groups (CH3). Using proton coupling experiments such as 1-D decoupling and COSY, one large spin system containing eight carbons is identified. In addition, a smaller spin system consisting of two carbons is present. A carbon proton correlation experiment (HMBC) enabled assignment of each proton resonance in the molecule to its attached carbon."}, "[3]": {"system": "Septoria nodorum", "experiment": "Fungal growth inhibition assay, Septoria nodorum", "type": "cell-based", "procedure": "(§1) Mutants of the Bacillus thuringiensis subsp. kurstaki strain which produce the factor are identified using fungal agar plates of Septoria nodorum and Alternaria alternata.\n(§2) The two fungi are grown on PDA (potato dextrose agar) plates at 26° C. for 10-14 days until sufficient sporulation is obtained. Alternaria alternata is incubated in alternating UV light and darkness (12 hrs. each). The spores are removed from the plates and suspended in sterile water. Septoria nodorum spores are filtered through a sterile G1 filter. The Alternaria alternata spore concentration is adjusted to approximately 2×10^5 per ml and the Septoria nodorum spore concentration is adjusted to approximately 2×10^6 per ml using a Burker-Turk or Fuchs-Rosenthal counter. Samples of 1.5 ml of the spore suspension are then mixed with 1.5 ml of sterile 40% glycerol in water, frozen for 1 day at −20° C. and thereafter stored at −80° C. until use.\n(§3) Test plates for the factor are prepared by mixing at 46° C. a 1.5 ml spore sample (as described above) with 115 ml of antibiotic agar medium No. 2 (25.5 g per liter) comprising streptomycin at a final concentration of 100 μg per ml, and transferring the mixture to sterile plastic trays (Nunc No. 101875). After the agar has solidified, […] holes are punched into the agar (120 holes per tray).\n(§4) Samples of a culture are serially diluted in 100 μg of streptomycn per ml of sterile water and 10 μl of the diluted samples are dispensed into the trays prepared as described above. The trays are incubated at 26° C. for 2 days. Dilutions of the factor are also run as a positive control.\n(§5) The sensitivity of the fungal growth inhibition assay is in the range of 0.05 gram of the factor per liter (barely visible) and 0.1 gram of the factor per liter (clear zone) for both fungi."}, "[4]": {"system": "Spodoptera exigua", "type": "in vivo", "parameters": "key to Stunt Score: 4.0 = untreated control; 3.0 = 75% size of untreated control; 2.0 = 50% size of untreated control; 1.0 = 25% size of untreated control; 0.0 = no growth or size unchanged from start of experiment", "procedure": "Activity is monitored by a Spodoptera exigua micro-bioassay, and purity is determined by capillary electrophoresis. […] The trays containing the various samples are air dried. Two to four 2nd or early 3rd instar Spodoptera exigua are added to the wells containing the dried sample. The wells are sealed with mylar poked with holes and are incubated for 2-3 days at 30° C. Degree of stunting and percent mortality are then recorded. Typically, 5 replicate wells are run for each sample."}, "[5]": {"system": "Alternaria alternata", "experiment": "Fungal growth inhibition assay, Alternaria alternata", "type": "cell-based", "procedure": "as §1, §2, §3, §4, §5"}, "[6]": {"system": "Phytophthora medicaginis", "conditions": "U.S. Pat. Nos. 4,877,738 and 4,878,936; cited from earlier work"}}, "note": "Like-named read-outs stand apart in the source and are kept apart here.", "data": [{"compound": "NC(=O)NCC(NC(=O)C(O)C(O)C(N)C(O)CC(O)C(N)CO)C(N)=O", "note": "(stereo not shown) [Ia]", "values": [{"measurement": "stability upon autoclaving", "setting": "[1]; autoclaving (>190° C.)", "value": "loses all activity"}, {"measurement": "stability upon boiling", "setting": "[1]; boiling for 5 minutes", "value": "stable"}, {"measurement": "time stable in direct sunlight", "setting": "[1]; direct sunlight", "value": "at least 10 hours"}, {"measurement": "stability to periodic acid or concentrated HCl", "setting": "[1]; exposed to periodic acid or concentrated HCl", "value": "lose all activity"}, {"measurement": "stability at pH 2", "setting": "[1]; pH 2 for 3 days", "value": "stable"}, {"measurement": "stability at pH 12", "setting": "[1]; pH 12", "value": "unstable"}, {"measurement": "solubility in organic solvents", "setting": "[2]; organic solvents", "value": "not soluble"}, {"measurement": "solubility in water", "setting": "[2]; water", "value": "water soluble"}, {"measurement": "effect on fungal growth", "setting": "[3]; agar plates", "value": "inhibits growth"}, {"measurement": "concentration giving barely visible inhibition (assay sensitivity)", "setting": "[3]; barely visible, 26° C., 2 days", "value": "0.05 gram of the factor per liter"}, {"measurement": "concentration giving clear zone (assay sensitivity)", "setting": "[3]; clear zone, 26° C., 2 days", "value": "0.1 gram of the factor per liter"}, {"measurement": "Stunt Score", "setting": "[4]; Ia + alone, Bt protein None", "value": 4.0}, {"measurement": "effect on activity of B.t. subsp. kurstaki and aizawai crystal delta-endotoxin pesticidal proteins toward Spodoptera exigua", "setting": "[4]; regardless of the form of the pesticidal proteins", "value": "potentiate"}, {"measurement": "effect on fungal growth", "setting": "[5]; agar plates", "value": "inhibits growth"}, {"measurement": "concentration giving barely visible inhibition (assay sensitivity)", "setting": "[5]; barely visible, 26° C., 2 days", "value": "0.05 gram of the factor per liter"}, {"measurement": "concentration giving clear zone (assay sensitivity)", "setting": "[5]; clear zone, 26° C., 2 days", "value": "0.1 gram of the factor per liter"}]}, {"compound": "NC(=O)NCC(NC(=O)C(O)C(O)C(N)C(O)CC(O)C(N)CO)C(N)=O", "note": "(stereo not shown) [zwittermicin A]", "values": [{"measurement": "effect on growth of the plant pathogen Phytophthora medicaginis", "setting": "[6]", "value": "inhibits the growth"}, {"measurement": "effect on infection of alfalfa", "setting": "[6]", "value": "reduces the infection"}]}, {"compound": "CryIA(c): Bacillus thuringiensis CryIA(c) delta-endotoxin protein purified from BIOBIT FC", "values": [{"measurement": "Stunt Score", "setting": "[4]; Bt protein 3 μg/ml, Ia +", "value": "1.0 (1.0 = 25% size of untreated control)"}, {"measurement": "Stunt Score", "setting": "[4]; Bt protein 15 μg/ml, Ia +", "value": 0.0}, {"measurement": "Stunt Score", "setting": "[4]; Bt protein 30 μg/ml, Ia −", "value": 4.0}, {"measurement": "concentration with Ia producing the same insect mortality/stunt score as protein alone", "setting": "[4]; full-length protein, equals 240 μg/ml of CryIA(c) alone", "value": 0.75, "unit": "µg/mL"}, {"measurement": "Stunt Score", "setting": "[4]; purified truncated Bt protein OD280 0.0006, Ia +", "value": "1.0 (1.0 = 25% size of untreated control)"}, {"measurement": "Stunt Score", "setting": "[4]; purified truncated Bt protein OD280 0.0012, Ia +", "value": "1.0 (1.0 = 25% size of untreated control)"}, {"measurement": "Stunt Score", "setting": "[4]; purified truncated Bt protein OD280 0.0025, Ia +", "value": "2.0 (2.0 = 50% size of untreated control)"}, {"measurement": "Stunt Score", "setting": "[4]; purified truncated Bt protein OD280 0.005, Ia +", "value": 0.0}, {"measurement": "Stunt Score", "setting": "[4]; purified truncated Bt protein OD280 0.020, Ia +", "value": 0.0}, {"measurement": "OD280 in combination with Ia giving the same stunt score as protein alone", "setting": "[4]; truncated protein, equals OD280 of 0.075 tested alone", "value": 0.0006, "unit": "OD280"}]}]}
